Columns and labels:
[1] = tested on: 31-bp oligonucleotides containing the putative DUX4 binding site; experiment: Electromobility shift assay (EMSA); set-up: species or system human; conditions: in vitro translated protein; TRIM48, CSF1R, THE1D oligos
Protocol: EMSA was performed with ^32P-labeled 31-bp oligonucleotides from endogenous genomic sequences containing the putative DUX4 binding site as probes (sequences below; only forward shown). Radiolabeled probes were incubated with in vitro translated protein generated from pCS2-DUX4-fl or pCS2-DUX4-s^2 vectors using the TNT SP6 Coupled Wheat Germ Extract System (Promega) according to manufacturer's instructions. To obtain supershift of protein-DNA complexes, 0.1 μg of E14-3 anti-DUX4 rabbit monoclonal antibody was added to the mixtures. For competition experiments, excess unlabeled probes of either wild-type or mutant sequences were included in the binding reaction. The gels were prepared and run as previously described (Knoepfler et al., 1999).

[2] = tested on: normal skeletal muscle cells; experiment: RT-PCR of cancer testis antigens in transduced normal skeletal muscle cells; type: cell-based, human; conditions: RT-PCR vs lenti-GFP
Description: The results were normalized to an internal control standard of either 18S or GAPDH.

Human myoblasts = experiment: Expression array of the innate immune response to lentiviral infection versus uninfected cells; type: cell-based
Protocol: RNA was harvested from the lenti-viral infected cells and uninfected control cells at 24 hours after infection.

## DUX4-fl: full-length DUX4 protein (SEQ ID NO:110), expressed from lentiviral or pCS2 vectors or in vitro translated
[1]
  binding to DUX4 core motifs: binds the core motifs present in both MaLR-associated and non-repeat associated sites
[2]
  induction of cancer testis antigens BAGE, MAGEA4, MAGEA9, SSX1, SSX2, SSX4 and a PRAME family member: over 2 fold
Human myoblasts
  induction of viral RNA sensors LGP2 (DHX58), IFIH1 (MDA5), DDX58 (RIG-1): suppresses the induction of the three primary sensors of viral RNA
  number of the 341 genes induced within 50% of the level of induction by lenti-GFP: 24 genes
Human myoblasts; 317 out of 341
  share of lentivirus-induced genes whose induction is suppressed: 93%
Human myoblasts; expression array
  DEFB103A and DEFB103B transcripts: activated
Human myoblasts; gene CCL2 NM_002982.3, vs lenti-GFP, 24 hours after infection
  CCL2 expression ratio vs GFP (.fc): −2.68 log2 fold change
Human myoblasts; gene CCL2 NM_002982.3, vs uninfected, 24 hours after infection
  CCL2 expression ratio vs NoLenti (.fc): 0.01 log2 fold change
Human myoblasts; gene CCL5 NM_002985.2, vs lenti-GFP, 24 hours after infection
  CCL5 expression ratio vs GFP (.fc): −2.53 log2 fold change
Human myoblasts; gene CCL5 NM_002985.2, vs uninfected, 24 hours after infection
  CCL5 expression ratio vs NoLenti (.fc): 0.22 log2 fold change
Human myoblasts; gene CXCL1 NM_001511.1, vs lenti-GFP, 24 hours after infection
  CXCL1 expression ratio vs GFP (.fc): −3.52 log2 fold change
Human myoblasts; gene CXCL1 NM_001511.1, vs uninfected, 24 hours after infection
  CXCL1 expression ratio vs NoLenti (.fc): −0.04 log2 fold change
Human myoblasts; gene CXCL2 NM_002089.3, vs lenti-GFP, 24 hours after infection
  CXCL2 expression ratio vs GFP (.fc): −1.34 log2 fold change
Human myoblasts; gene CXCL2 NM_002089.3, vs uninfected, 24 hours after infection
  CXCL2 expression ratio vs NoLenti (.fc): −0.04 log2 fold change
Human myoblasts; gene CXCL5 NM_002994.3, vs lenti-GFP, 24 hours after infection
  CXCL5 expression ratio vs GFP (.fc): −2.47 log2 fold change
Human myoblasts; gene CXCL5 NM_002994.3, vs uninfected, 24 hours after infection
  CXCL5 expression ratio vs NoLenti (.fc): −0.37 log2 fold change
Human myoblasts; gene CXCL6 NM_002993.2, vs lenti-GFP, 24 hours after infection
  CXCL6 expression ratio vs GFP (.fc): −1.99 log2 fold change
Human myoblasts; gene CXCL6 NM_002993.2, vs uninfected, 24 hours after infection
  CXCL6 expression ratio vs NoLenti (.fc): −0.10 log2 fold change
Human myoblasts; gene DDX58 NM_014314.3, vs lenti-GFP, 24 hours after infection
  DDX58 expression ratio vs GFP (.fc): −2.47 log2 fold change
Human myoblasts; gene DDX58 NM_014314.3, vs uninfected, 24 hours after infection
  DDX58 expression ratio vs NoLenti (.fc): −0.18 log2 fold change
Human myoblasts; gene DHX58 NM_024119.2, vs lenti-GFP, 24 hours after infection
  DHX58 (LGP2) expression ratio vs GFP (.fc): −2.84 log2 fold change
Human myoblasts; gene DHX58 NM_024119.2, vs uninfected, 24 hours after infection
  DHX58 (LGP2) expression ratio vs NoLenti (.fc): −0.17 log2 fold change
Human myoblasts; gene IFI6 NM_022872.2, vs lenti-GFP, 24 hours after infection
  IFI6 expression ratio vs GFP (.fc): −4.24 log2 fold change
Human myoblasts; gene IFI6 NM_022872.2, vs uninfected, 24 hours after infection
  IFI6 expression ratio vs NoLenti (.fc): 0.82 log2 fold change
Human myoblasts; gene IFI16 NM_005531.1, vs lenti-GFP, 24 hours after infection
  IFI16 expression ratio vs GFP (.fc): −2.01 log2 fold change
Human myoblasts; gene IFI16 NM_005531.1, vs uninfected, 24 hours after infection
  IFI16 expression ratio vs NoLenti (.fc): −0.14 log2 fold change
Human myoblasts; gene IFI27 NM_005532.3, vs lenti-GFP, 24 hours after infection
  IFI27 expression ratio vs GFP (.fc): −6.53 log2 fold change
Human myoblasts; gene IFI27 NM_005532.3, vs uninfected, 24 hours after infection
  IFI27 expression ratio vs NoLenti (.fc): 0.92 log2 fold change
Human myoblasts; gene IFI35 NM_005533.2, vs lenti-GFP, 24 hours after infection
  IFI35 expression ratio vs GFP (.fc): −3.85 log2 fold change
Human myoblasts; gene IFI35 NM_005533.2, vs uninfected, 24 hours after infection
  IFI35 expression ratio vs NoLenti (.fc): −0.32 log2 fold change
Human myoblasts; gene IFI44L NM_006820.1, vs lenti-GFP, 24 hours after infection
  IFI44L expression ratio vs GFP (.fc): −5.12 log2 fold change
Human myoblasts; gene IFI44L NM_006820.1, vs uninfected, 24 hours after infection
  IFI44L expression ratio vs NoLenti (.fc): 0.74 log2 fold change
Human myoblasts; gene IFI44 NM_006417.3, vs lenti-GFP, 24 hours after infection
  IFI44 expression ratio vs GFP (.fc): −2.42 log2 fold change
Human myoblasts; gene IFI44 NM_006417.3, vs uninfected, 24 hours after infection
  IFI44 expression ratio vs NoLenti (.fc): 0.90 log2 fold change
Human myoblasts; gene IFIH1 NM_022168.2, vs lenti-GFP, 24 hours after infection
  IFIH1 (MDA5) expression ratio vs GFP (.fc): −3.70 log2 fold change
Human myoblasts; gene IFIH1 NM_022168.2, vs uninfected, 24 hours after infection
  IFIH1 (MDA5) expression ratio vs NoLenti (.fc): 0.25 log2 fold change
Human myoblasts; gene IFIT1 NM_001548.3, vs lenti-GFP, 24 hours after infection
  IFIT1 expression ratio vs GFP (.fc): −4.38 log2 fold change
Human myoblasts; gene IFIT1 NM_001548.3, vs uninfected, 24 hours after infection
  IFIT1 expression ratio vs NoLenti (.fc): 0.43 log2 fold change
Human myoblasts; gene IFIT3 NM_001549.2, vs lenti-GFP, 24 hours after infection
  IFIT3 expression ratio vs GFP (.fc): −3.86 log2 fold change
Human myoblasts; gene IFIT3 NM_001549.2, vs uninfected, 24 hours after infection
  IFIT3 expression ratio vs NoLenti (.fc): 0.04 log2 fold change
Human myoblasts; gene IFIT5 NM_012420.1, vs lenti-GFP, 24 hours after infection
  IFIT5 expression ratio vs GFP (.fc): −1.65 log2 fold change
Human myoblasts; gene IFIT5 NM_012420.1, vs uninfected, 24 hours after infection
  IFIT5 expression ratio vs NoLenti (.fc): −0.36 log2 fold change
Human myoblasts; gene IFITM1 NM_003641.3, vs lenti-GFP, 24 hours after infection
  IFITM1 expression ratio vs GFP (.fc): −6.12 log2 fold change
Human myoblasts; gene IFITM1 NM_003641.3, vs uninfected, 24 hours after infection
  IFITM1 expression ratio vs NoLenti (.fc): 0.73 log2 fold change
Human myoblasts; gene IFITM2 NM_006435.2, vs lenti-GFP, 24 hours after infection
  IFITM2 expression ratio vs GFP (.fc): −1.71 log2 fold change
Human myoblasts; gene IFITM2 NM_006435.2, vs uninfected, 24 hours after infection
  IFITM2 expression ratio vs NoLenti (.fc): −0.46 log2 fold change
